According to paper PMC10449631 (Nature Chemical Biology, 2023):
“And” between values parts separate entries of the source, which are not always exact repeats. Equal values may be shown once. No end group written: not given here.

Experiments:
[1] = biological target: T1, PaAP_T (P. aeruginosa aminopeptidase, C-terminal truncated) (Pseudomonas aeruginosa, UniProt Q02PA2); test: Inhibition of PaAP_T in the Leu-pNA aminopeptidase assay (KI, IC50); assay type: biochemical; conditions: for IC50 plot data (PaAP_T activity at given peptide concentration): (S) = 2 mM, PaAP 100 nM, listed as ERWGHDFIK (linear)
T1 construct: PaAP (WT, residues 27–536); His6 (TEV cleavable) (N, cleaved yes); made in house; host or cells: E. coli SHuffle T7
Description: Aminopeptidase activity was determined spectrophotometrically primarily using amino Leu-pNA. Other commercially available pNA substrates (isoleucine, methionine, alanine, valine, proline, arginine, lysine and phenylalanine) were also assayed. Leu-pNA was incubated with enzyme (100 nM) in assay buffer (50 mM Tris, pH 8.5, 200 mM NaCl) at 25 °C. A pNA release caused an absorbance increase at 405 nm, monitored using a BMG Labtech plate reader. […] Data were plotted in GraphPad Prism (version 9) and the Michalis Menten equation was used for fitting.
Inhibition assays were carried out with the following peptides: linear-ERWGHDFIK (PaAP C-terminal residues), cyclic-ERWGHDFIK, N-acetylated and C-amidated ERWGHDFIK. IC50 values were determined by varying peptide concentration at a fixed substrate concentration (fixed at KM, (S) = 2 mM, PaAP concentration was 100 nM). […] KI values were determined by fitting the data to equation (1) (Morrison’s equation):1 v=1−Et+I+KI−Et+I+KI^2−4EtIKI/2Et where v is the velocity, Et is the total enzyme concentration, I is the concentration of inhibitor and KI is the equilibrium dissociation constant for the inhibitor. IC50 values increased when measured at increasing S, consistent with competitive inhibition.

[2] = biological target: T2, PaAP (Pseudomonas aeruginosa, UniProt Q02PA2, A513L/Q514V/S515P); test: Peptide digestion assay (overnight and time course, LC-MS/MALDI); assay type: biochemical; conditions: for substrate of / degraded by PaAP (words): incubated with PaAP overnight, LC–MS or MALDI; for P0 (parent peptide, LC–MS signal): 500 μM peptide, 1 μM PaAP_T
T2 construct: PaAP (WT, residues 27–536); His6 (TEV cleavable) (N, cleaved yes); made in house; host or cells: E. coli SHuffle T7
Description: A variety of peptides of varying lengths and compositions were incubated with PaAP at room temperature. Assays were performed by incubating (overnight at room temperature) 500 μM of substrate (peptides) with 1 μM enzyme (PaAP) in reaction buffer (50 mM Tris, pH 8.5, 100 mM NaCl). The reactions were quenched by heating to 100 °C for 10 min followed by centrifugation at 17,000g in a benchtop centrifuge to remove precipitate. Supernatant was collected and samples were analyzed by LC–MS. Initial trial assays were carried out in the presence and absence (control) of enzyme to determine if the substrate was degraded (single or triplicate experiments). Time-course assays were performed on selected peptide substrates in triplicate. A 300 μl reaction (including 500 μM of substrate) was initiated by the addition of 1 μM enzyme. The reaction was incubated at room temperature. The reaction was quenched at set timepoints by the removal of 30 μl aliquots, which were immediately heated to 100 °C for 10 min. The samples were analyzed by LC–MS using a Xevo Q-ToF (Waters) as described below, searching for masses of all peptide breakdown products.
Peptide degradation time courses were fitted to exponential equations as follows:
P0 peptide consumption was fitted to a single exponential equation (equation (2)) with the format2 yt=y0−Plateaue^−kt+Plateau
Time courses for the formation and decay of peptide intermediates were fitted to double exponential equations (equation (3)) and single exponential equations, followed by a linear phase (4)3 yt=y0−Plateau1e^−k1t+y0−Plateau2e^−k2t+Plateau 4 yt=y0−Plateaue^−kt+vt+Plateau where y(t) is the product formed at time t, y0 − Plateau is the amplitude of the exponential phase, k is the observed rate constant for the exponential phase, y0 is the value of y at time 0, Plateau is the value of y after exponential phase, C is the offset and v is the slope of the linear phase.
Peptide samples incubated in the presence and absence of PaAP were initially analyzed by MALDI. The peptide sample (0.5 µl at 10 µM) was spotted along with matrix (0.5 µl 10 mg ml^−1 α-cyano-4-hydroxycinnamic acid in ACN/0.1% TFA (50/50, vol/vol)) on a stainless steel MALDI plate and left to dry. The sample plate was loaded into a Sciex 4800 MALDI mass spectrometer. The laser voltage was adjusted to give a good signal to noise strength, and 50 shots were acquired in a random pattern across the spot and spectra combined. The spectra were externally calibrated with Sciex Pepcal mix (range: 500–4,000 m/z).

T2 sequence (Q02PA2 37-516 A513L/Q514V/S515P): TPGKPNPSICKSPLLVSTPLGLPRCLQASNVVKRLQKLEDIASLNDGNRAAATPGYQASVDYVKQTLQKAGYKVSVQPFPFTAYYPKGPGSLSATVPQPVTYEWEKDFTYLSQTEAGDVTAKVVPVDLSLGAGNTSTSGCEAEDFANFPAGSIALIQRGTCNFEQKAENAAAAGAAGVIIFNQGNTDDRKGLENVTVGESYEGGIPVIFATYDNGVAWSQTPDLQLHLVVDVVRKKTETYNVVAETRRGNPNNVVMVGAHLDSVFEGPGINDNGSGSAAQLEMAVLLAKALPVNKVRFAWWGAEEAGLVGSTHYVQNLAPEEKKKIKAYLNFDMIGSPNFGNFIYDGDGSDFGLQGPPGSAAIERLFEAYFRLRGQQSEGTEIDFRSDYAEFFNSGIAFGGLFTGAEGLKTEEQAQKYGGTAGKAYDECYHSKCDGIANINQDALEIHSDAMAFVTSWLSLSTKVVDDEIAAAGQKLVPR
T1 sequence (Q02PA2 37-516, looked up, natural form): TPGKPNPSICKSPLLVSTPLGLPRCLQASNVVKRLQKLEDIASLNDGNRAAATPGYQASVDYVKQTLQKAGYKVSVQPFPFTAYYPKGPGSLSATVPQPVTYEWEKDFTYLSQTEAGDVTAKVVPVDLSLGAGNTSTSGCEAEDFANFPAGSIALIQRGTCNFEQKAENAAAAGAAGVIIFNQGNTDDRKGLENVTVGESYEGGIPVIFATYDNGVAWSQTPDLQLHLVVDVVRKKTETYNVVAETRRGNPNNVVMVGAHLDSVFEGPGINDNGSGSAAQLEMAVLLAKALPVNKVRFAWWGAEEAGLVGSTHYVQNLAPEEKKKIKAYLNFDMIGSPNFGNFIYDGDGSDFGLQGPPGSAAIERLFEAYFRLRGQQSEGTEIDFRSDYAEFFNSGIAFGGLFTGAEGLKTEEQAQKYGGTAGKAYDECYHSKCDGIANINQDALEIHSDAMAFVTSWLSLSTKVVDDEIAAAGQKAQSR

ERWGHDFIK [linear-ERWGHDFIK]
Ki [1]: 9.98 µM | Slope ([1]; inhibitor 1 μM, [S] 0.125 mM): 21.4683 and 20.3052 and 17.979 | Slope ([1]; inhibitor 1 μM, [S] 0.25 mM): 41.2291 and 37.1458 and 30.365 | Slope ([1]; inhibitor 1 μM, [S] 0.5 mM): 67.9068 and 67.7954 and 67.0654 | Slope ([1]; inhibitor 1 μM, [S] 1 mM): 121.633 and 131.285 and 109.532 | Slope ([1]; inhibitor 1 μM, [S] 2 mM): 200.701 and 204.537 and 171.128 | Slope ([1]; inhibitor 1 μM, [S] 4 mM): 291.524 and 268.014 and 241.411 | Slope ([1]; inhibitor 5 μM, [S] 0.125 mM): 9.581 and 8.778 and 8.696 | Slope ([1]; inhibitor 5 μM, [S] 0.25 mM): 32.4809 and 31.8746 and 26.7767 | Slope ([1]; inhibitor 5 μM, [S] 0.5 mM): 59.2205 and 59.9629 and 55.5826 | Slope ([1]; inhibitor 5 μM, [S] 1 mM): 96.3415 and 104.397 and 108.74 | Slope ([1]; inhibitor 5 μM, [S] 2 mM): 181.646 and 174.716 and 170.509 | Slope ([1]; inhibitor 5 μM, [S] 4 mM): 244.875 and 240.668 and 225.201 | Slope ([1]; inhibitor 10 μM, [S] 0.125 mM): 20.5527 and 17.7562 and 12.5469 | Slope ([1]; inhibitor 10 μM, [S] 0.25 mM): 41.2291 and 35.2155 and 27.5686 | Slope ([1]; inhibitor 10 μM, [S] 0.5 mM): 78.3873 and 67.5108 and 53.8255 | Slope ([1]; inhibitor 10 μM, [S] 1 mM): 125.469 and 113.021 and 101.823 | Slope ([1]; inhibitor 10 μM, [S] 2 mM): 183.502 and 182.636 and 149.35 | Slope ([1]; inhibitor 10 μM, [S] 4 mM): 242.153 and 233.244 and 209.115 | Slope ([1]; inhibitor 25 μM, [S] 0.125 mM): 6.59 and 5.065 | Slope ([1]; inhibitor 25 μM, [S] 0.25 mM): 13.4378 and 10.2466 and 12.344 | Slope ([1]; inhibitor 25 μM, [S] 0.5 mM): 24.5618 and 19.0802 and 21.3817 | Slope ([1]; inhibitor 25 μM, [S] 1 mM): 49.4576 and 37.8759 and 44.6938 | Slope ([1]; inhibitor 25 μM, [S] 2 mM): 81.2827 and 58.2058 and 83.8441 | Slope ([1]; inhibitor 25 μM, [S] 4 mM): 157.641 and 123.551 and 157.764 | Slope ([1]; inhibitor 50 μM, [S] 0.25 mM): 11.9777 and 10.1576 and 8.79 | Slope ([1]; inhibitor 50 μM, [S] 0.5 mM): 21.0971 and 19.6494 and 15.7888 | Slope ([1]; inhibitor 50 μM, [S] 2 mM): 58.0945 and 62.2891 and 43.8276 | Slope ([1]; inhibitor 50 μM, [S] 4 mM): 81.3941 and 82.5449 and 61.3735 | Slope ([1]; inhibitor 100 μM, [S] 0.125 mM): 4.015 and 2.528 | Slope ([1]; inhibitor 100 μM, [S] 0.25 mM): 7.23 and 6.8674 and 5.4469 | Slope ([1]; inhibitor 100 μM, [S] 0.5 mM): 11.4246 and 12.4479 and 9.504 | Slope ([1]; inhibitor 100 μM, [S] 1 mM): 22.1736 and 23.0274 and 17.6325 | Slope ([1]; inhibitor 100 μM, [S] 2 mM): 38.6801 and 37.22 and 41.7859 | Slope ([1]; inhibitor 100 μM, [S] 4 mM): 61.8313 and 63.972 and 50.5094 | IC50 plot data (PaAP_T activity at given peptide concentration) ([1]; log(I) 0): 90.0485 and 96.6538 and 93.9669 | IC50 plot data (PaAP_T activity at given peptide concentration) ([1]; log(I) 0.39794): 67.4338 and 85.0852 and 79.5995 | IC50 plot data (PaAP_T activity at given peptide concentration) ([1]; log(I) 0.69897): 45.9385 and 56.7981 and 56.8354 | IC50 plot data (PaAP_T activity at given peptide concentration) ([1]; log(I) 1): 21.9729 and 26.522 and 23.891 | IC50 plot data (PaAP_T activity at given peptide concentration) ([1]; log(I) 1.39794): 12.1508 and 12.1918 and 12.9158 | IC50 plot data (PaAP_T activity at given peptide concentration) ([1]; log(I) 1.69897): 10.3856 and 11.9269 and 11.4231 | IC50 plot data (PaAP_T activity at given peptide concentration) ([1]; log(I) 2): 9.945 and 11.4156 and 11.076 | IC50 plot data (PaAP_T activity at given peptide concentration) ([1]; log(I) -0.30103): 92.6981 and 112.924 and 94.3774 | substrate of / degraded by PaAP (words) [2]: acts as a substrate | substrate of / degraded by PaAP (words) ([2]; listed as ERWGHDFIK): capable of processing | P0 (parent peptide, LC–MS signal) ([2]; time 0 minutes): 472729 and 388218 and 391107 | P0 (parent peptide, LC–MS signal) ([2]; time 5 minutes): 463970 and 401514 and 388992 | P0 (parent peptide, LC–MS signal) ([2]; time 10 minutes): 456641 and 389333 and 386619 | P0 (parent peptide, LC–MS signal) ([2]; time 30 minutes): 422990 and 361623 and 355988 | P0 (parent peptide, LC–MS signal) ([2]; time 60 minutes): 374560 and 318426 and 323916 | P0 (parent peptide, LC–MS signal) ([2]; time 90 minutes): 323540 and 290204 and 288024 | P0 (parent peptide, LC–MS signal) ([2]; time 120 minutes): 238229 and 257847 | P0 (parent peptide, LC–MS signal) ([2]; time 1220 minutes): 623.109 and 431.795 and 326.884
